Reference: US20130196050A1, “SALTY TASTE ENHANCER” (AJINOMOTO CO., INC., priority 2010, published 2013)

biological target: T1, Human ENaC δ, β and γ subunit (Homo sapiens, UniProt P51168+P51170+P51172); experiment: Measurement of ENaC activation potency (two electrode voltage clamp current in ENaC-expressing oocyte); type: cell-based; settings: lowest concentration increasing the current value by not less than 10% vs before addition
T1 construct: expressed in transfected cells; host or cells: Xenopus laevis (African clawed frog) oocytes injected with cRNA
T1 sequence (P51172 1-638 isoform P51172-1): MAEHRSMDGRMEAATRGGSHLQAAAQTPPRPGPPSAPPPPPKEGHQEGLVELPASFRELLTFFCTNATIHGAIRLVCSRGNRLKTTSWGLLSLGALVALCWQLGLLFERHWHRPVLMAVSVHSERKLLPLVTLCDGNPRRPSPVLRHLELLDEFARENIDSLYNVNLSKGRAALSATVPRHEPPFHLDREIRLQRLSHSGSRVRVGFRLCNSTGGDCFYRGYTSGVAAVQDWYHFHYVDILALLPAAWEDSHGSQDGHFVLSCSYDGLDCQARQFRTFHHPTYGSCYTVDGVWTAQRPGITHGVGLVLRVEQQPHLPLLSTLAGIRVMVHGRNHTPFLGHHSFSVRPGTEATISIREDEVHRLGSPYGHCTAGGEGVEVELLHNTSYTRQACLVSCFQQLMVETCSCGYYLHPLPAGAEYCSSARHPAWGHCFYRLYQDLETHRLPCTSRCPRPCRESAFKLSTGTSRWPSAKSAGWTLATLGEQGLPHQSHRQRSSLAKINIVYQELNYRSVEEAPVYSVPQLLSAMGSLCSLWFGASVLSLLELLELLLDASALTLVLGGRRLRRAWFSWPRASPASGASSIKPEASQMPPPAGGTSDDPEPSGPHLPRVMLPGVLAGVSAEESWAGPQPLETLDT
T1 sequence (P51168 1-640): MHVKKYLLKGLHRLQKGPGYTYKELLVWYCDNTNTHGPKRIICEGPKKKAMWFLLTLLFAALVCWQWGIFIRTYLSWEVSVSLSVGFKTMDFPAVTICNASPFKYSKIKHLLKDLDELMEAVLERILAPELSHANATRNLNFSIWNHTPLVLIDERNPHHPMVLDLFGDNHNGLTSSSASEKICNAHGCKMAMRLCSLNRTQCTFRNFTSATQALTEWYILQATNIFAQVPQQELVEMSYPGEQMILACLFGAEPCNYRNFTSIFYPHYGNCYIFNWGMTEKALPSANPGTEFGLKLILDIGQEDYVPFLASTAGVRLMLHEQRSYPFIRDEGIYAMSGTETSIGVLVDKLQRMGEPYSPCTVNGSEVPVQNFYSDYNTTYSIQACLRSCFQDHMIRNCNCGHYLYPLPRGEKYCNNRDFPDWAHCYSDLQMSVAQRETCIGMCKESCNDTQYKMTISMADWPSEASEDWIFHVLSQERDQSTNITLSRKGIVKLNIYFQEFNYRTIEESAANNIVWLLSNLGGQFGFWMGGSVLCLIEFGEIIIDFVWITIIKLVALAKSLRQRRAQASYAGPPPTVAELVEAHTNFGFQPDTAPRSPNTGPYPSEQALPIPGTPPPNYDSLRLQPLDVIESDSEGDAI
T1 sequence (P51170 1-649): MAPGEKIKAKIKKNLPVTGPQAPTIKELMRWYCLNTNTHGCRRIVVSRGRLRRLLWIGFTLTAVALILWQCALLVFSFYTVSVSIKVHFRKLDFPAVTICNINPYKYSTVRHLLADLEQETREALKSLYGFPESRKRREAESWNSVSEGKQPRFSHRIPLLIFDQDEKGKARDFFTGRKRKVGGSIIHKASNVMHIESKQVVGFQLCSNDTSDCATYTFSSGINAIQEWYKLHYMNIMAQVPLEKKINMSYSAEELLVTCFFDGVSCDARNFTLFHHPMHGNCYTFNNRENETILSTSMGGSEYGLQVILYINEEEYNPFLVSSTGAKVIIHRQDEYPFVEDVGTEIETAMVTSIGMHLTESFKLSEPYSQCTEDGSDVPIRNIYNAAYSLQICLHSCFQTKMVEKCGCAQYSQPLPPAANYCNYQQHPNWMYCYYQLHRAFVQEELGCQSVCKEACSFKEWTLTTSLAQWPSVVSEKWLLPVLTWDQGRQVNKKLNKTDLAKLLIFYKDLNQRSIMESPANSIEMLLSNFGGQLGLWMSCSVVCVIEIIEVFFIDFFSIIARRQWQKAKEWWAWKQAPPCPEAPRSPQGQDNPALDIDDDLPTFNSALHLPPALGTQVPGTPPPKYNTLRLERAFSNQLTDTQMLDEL
Method: ENaC activation current value, namely, the inward current in ENaC-expressing oocyte was measured as follows.
According to the method described in Motonao Nakamura, Takao Shimizu: Experiment of African clawed frog oocyte, Experimental Medicine Vol. 11, No. 3, 224-232 (1993), oocyte was collected from African clawed frog, […], and the current value was measured by a Two Electrode Voltage Clamp technique. In the present invention, ND96 (96 mM NaCl, 2 mM KCl, 1 mM MgCl2, 5 mM Hepes, 1.8 mM CaCl2, pH 7.6) was used instead of MBS buffer in the above-mentioned document. Injector NANOLITER 2000 manufactured by World Precision Instruments was used for microinjection, OpusXpress 6000A manufactured by Molecular Devices was used for current value measurement by a Two Electrode Voltage Clamp technique, and Clampfit 10.2 software manufactured by Molecular Devices was used for data analysis.
Human ENaC δ, β and γ subunit genes shown by SEQ ID NOs: 1, 2 and 3, respectively, in the Sequence Listing were each cloned into a plasmid vector, and used as a template DNA for cRNA synthesis. cRNA was synthesized using MEGAscript kit manufactured by Ambion and according to the method of the manual of the manufacturer.
A mixture of the same amount of ENaC δ subunit cRNA (0.4 to 0.8 μg/μL), and β and γ subunits cRNA (0.4 μg/μL) was injected into the oocyte of African clawed frog at 27.6 nL per oocyte, and the oocyte was cultured for 16 hours to 72 hours. Thereafter, the oocyte was set on a measuring apparatus OpusXpress 6000A, the electrodes were inserted into the oocyte, the voltage was clamped at a level lower by −30 mV than the resting membrane potential by a Two Electrode Voltage Clamp technique, and the current value was measured.
To measure the ENaC activation potency, oocyte was stimulated with each test compound, and the minimum effective dose (hereinafter to be abbreviated as MED) of the compound at the time point when the electric current started to increase was measured. In this case, the minimum effective dose of the stimulation compound that increased the current value by not less than 10%, as compared to the current value before addition of the compound and without stimulation, was taken as MED. A smaller MED means higher ENaC activation potency.
Each test compound was directly dissolved in ND96, or first dissolved in dimethyl sulfoxide (DMSO) to 100 mM, and then prepared by diluting the solution with ND96 to a concentration used for the evaluation. The concentration of the test compound in ND96 was prepared to various concentrations within the range of 0.1 nM to 300 μm.
ND96 as a perfusion fluid was flowed at a rate of 0.5 mL/min through the measuring apparatus OpusXpress 6000A on which ENaC-expressing oocyte was set, the perfusion fluid was temporarily stopped every 3 minutes to add a test compound solution (0.25 mL) dissolved in ND96 at a rate of 0.5 mL/minute. In this way, the test compound was contacted with ENaC-expressing oocyte, and whether ENaC is activated by the compound was examined by measuring the current value. After addition of the test compound, feeding of the perfusion fluid was resumed to wash away the compound to be ready for the next addition of the compound.
The compound was added successively from a low concentration to a high concentration to stimulate ENaC-expressing oocyte. The concentrations actually added was, for example, 1 nM, 3 nM, 10 nM, 30 nM, 100 nM, 300 nM; 1 μM, 3 μM, 10 μm, 30 μm, 100 μm, 300 μm; 1.2 μM, 6 μM, 30 μm, 150 μm of one test compound. The compound was added from low concentrations to high concentrations at 3 minute intervals. The first compound was added from a low concentration to a high concentration, then the second and the third compounds were similarly added successively to the same oocyte, and changes in the current value were measured. The current value was continuously measured from the start to the end of the experiment. […]

SMILES	MED value (minimum effective dose)
O=C(CCc1ccccc1)N[C@@H](Cc1c[nH]c2ccc(O)cc12)C(=O)O [Example 74]	10 µM
CC(Cc1ccccc1)(NC(=O)CCc1ccccc1)C(=O)O (stereo not shown) [Example 75]	3 to 10 µM
O=C(CCc1ccccc1)NC(Cc1c[nH]c2ccc(F)cc12)C(=O)O (stereo not shown) [Example 76]	3 µM
Cc1ccc2c(CC(NC(=O)CCc3ccccc3)C(=O)O)c[nH]c2c1 (stereo not shown) [Example 77]	1 to 3 µM
CN(C(=O)CCc1ccccc1)[C@@H](Cc1ccccc1)C(=O)O [Example 78]	3 µM
O=C(CCc1ccccc1)NC(C(=O)O)c1ccccc1 (stereo not shown) [Example 79]	10 µM
N[C@@H](Cc1ccccc1)C(=O)Nc1c(O)cccc1O [Example 80]	3 µM
N[C@@H](CCc1ccccc1)C(=O)Nc1c(O)cccc1O [Example 81]	3 µM
O=C(N[C@@H](Cc1ccccc1)C(=O)O)c1c(O)cccc1O [Example 82]	1 µM
O=C(N[C@@H](CCc1ccccc1)C(=O)O)c1c(O)cccc1O [Example 83]	0.3-1^ μM
O=C(NCCc1c[nH]c2ccccc12)c1c(O)cccc1O [Example 84]	0.3 µM
O=C(CCc1c[nH]c2ccccc12)Nc1c(O)cccc1O [Example 87]	3 µM
COc1ccc(CCC(=O)Nc2c(O)cccc2O)cc1O [Example 89]	10 µM
COC(=O)[C@H](Cc1c[nH]c2ccccc12)NC(=O)c1cc(Br)ccc1O [Example 92]	3 to 10 µM
O=C(NCCc1c[nH]c2ccc(O)cc12)c1cc(Br)ccc1O [Example 93]	0.3 µM
O=C(NCCc1c[nH]c2ccccc12)c1cc(Br)ccc1O [Example 95]	1 µM
COC(=O)[C@H](Cc1ccccc1)NC(=O)c1cc(Br)ccc1O [Example 96]	1 µM
COC(=O)[C@H](CCc1ccccc1)NC(=O)c1cc(Br)ccc1O [Example 98]	10 µM

Results, then the compound that gave them:

MED value (minimum effective dose)	SMILES
1 µM	N[C@@H](CCc1ccccc1)C(=O)Nc1ccccc1S(=O)(=O)O [Example 103]
3 µM	O=C(NCCc1c[nH]c2ccc(O)cc12)c1ccc(Br)cc1O [Example 104]
3 µM	COC(=O)[C@H](Cc1c[nH]c2ccccc12)NC(=O)c1ccc(Br)cc1O [Example 106]
3 µM	COC(=O)[C@H](Cc1ccccc1)NC(=O)c1ccc(Br)cc1O [Example 107]
0.1 to 0.3 µM	O=C(N[C@@H](Cc1ccccc1)C(=O)O)c1ccc(Br)cc1O [Example 108]
3 µM	CCOC(=O)[C@H](Cc1ccccc1)NC(=O)c1cc(Br)ccc1O [Example 109]
0.1 to 0.3 µM	O=C(N[C@@H](Cc1c[nH]c2ccccc12)C(=O)O)c1ccc(Br)cc1O [Example 110]
1 µM	COC(=O)[C@H](Cc1c[nH]c2ccccc12)NC(=O)c1c(O)cc(C)cc1O [Example 112]
0.3 µM	Cc1cc(O)c(C(=O)N[C@@H](Cc2c[nH]c3ccccc23)C(=O)O)c(O)c1 [Example 113]
10 µM	CCOC(=O)[C@H](Cc1ccccc1)NC(=O)c1c(O)cc(C)cc1O [Example 114]
0.3 µM	Cc1cc(O)c(C(=O)N[C@@H](Cc2ccccc2)C(=O)O)c(O)c1 [Example 115]
3 to 10 µM	COC(=O)[C@H](CCc1ccccc1)NC(=O)c1c(O)cc(C)cc1O [Example 116]
0.3 µM	Cc1cc(O)c(C(=O)N[C@@H](CCc2ccccc2)C(=O)O)c(O)c1 [Example 117]
10 µM	COC(=O)[C@H](Cc1ccccc1)NC(=O)c1c(O)cc(C)cc1O [Example 118]
0.3 µM	N[C@@H](Cc1c[nH]c2ccccc12)C(=O)Nc1ccccc1S(=O)(=O)O [Example 119]
0.3 µM	COC(=O)[C@H](Cc1c[nH]c2ccccc12)NC(=O)c1c(O)cc(O)cc1O [Example 120]
3 µM	O=C(N[C@@H](Cc1c[nH]c2ccccc12)C(=O)O)c1c(O)cc(O)cc1O [Example 121]
1 µM	COC(=O)[C@H](Cc1ccccc1)NC(=O)c1c(O)cc(O)cc1O [Example 122]
10 µM	O=C(N[C@@H](Cc1ccccc1)C(=O)O)c1c(O)cc(O)cc1O [Example 123]
